From ChEMBL document CHEMBL1154382, “Preliminary SAR analysis of novel antiproliferative N(6),5'-bis-ureidoadenosine derivatives” (2009)

Legend:
Type in all cases: functional
Conditions in all cases: values are per cent of control
CCRF-CEM = assay: Antiproliferative activity against human CCRF-CEM cells at 10 uM assessed as cell growth inhibition relative to control
MDA-MB-468 = assay: Antiproliferative activity against human MDA-MB-468 cells at 10 uM assessed as cell growth inhibition relative to control
CAKI-1 = assay: Antiproliferative activity against human Caki1 cells at 10 uM assessed as cell growth inhibition relative to control
COLO 205 = assay: Antiproliferative activity against human COLO205 cells at 10 uM assessed as cell growth inhibition relative to control
HCC 2998 = assay: Antiproliferative activity against human HCC2998 cells at 10 uM assessed as cell growth inhibition relative to control
HOP-62 = assay: Antiproliferative activity against human HOP62 cells at 10 uM assessed as cell growth inhibition relative to control
U-251 = assay: Antiproliferative activity against human U251 cells at 10 uM assessed as cell growth inhibition relative to control
SK-MEL-5 = assay: Antiproliferative activity against human SK-MEL-5 cells at 10 uM assessed as cell growth inhibition relative to control
M14 = assay: Antiproliferative activity against human M14 cells at 10 uM assessed as cell growth inhibition relative to control
MOLT-4 = assay: Antiproliferative activity against human MOLT4 cells at 10 uM assessed as cell growth inhibition relative to control
NCI-H23 = assay: Antiproliferative activity against human NCI-H23 cells at 10 uM assessed as cell growth inhibition relative to control
UACC-62 = assay: Antiproliferative activity against human UACC62 cells at 10 uM assessed as cell growth inhibition relative to control
KM12 = assay: Antiproliferative activity against human KM12 cells at 10 uM assessed as cell growth inhibition relative to control
NCI-H226 = assay: Antiproliferative activity against human NCI-H226 cells at 10 uM assessed as cell growth inhibition relative to control
SW-620 = assay: Antiproliferative activity against human SW620 cells at 10 uM assessed as cell growth inhibition relative to control
A498 = assay: Antiproliferative activity against human A498 cells at 10 uM assessed as cell growth inhibition relative to control
A549 = assay: Antiproliferative activity against human A549 cells at 10 uM assessed as cell growth inhibition relative to control
BT-549 = assay: Antiproliferative activity against human BT549 cells at 10 uM assessed as cell growth inhibition relative to control
HL-60(TB) = assay: Antiproliferative activity against human HL-60(TB) cells at 10 uM assessed as cell growth inhibition relative to control
SK-MEL-28 = assay: Antiproliferative activity against human SK-MEL-28 cells at 10 uM assessed as cell growth inhibition relative to control
HOP-92 = assay: Antiproliferative activity against human HOP92 cells at 10 uM assessed as cell growth inhibition relative to control
K562 = assay: Antiproliferative activity against human K562 cells at 10 uM assessed as cell growth inhibition relative to control
EKVX = assay: Antiproliferative activity against human EKVX cells at 10 uM assessed as cell growth inhibition relative to control
SK-MEL-2 = assay: Antiproliferative activity against human SK-MEL-2 cells at 10 uM assessed as cell growth inhibition relative to control
SF-539 = assay: Antiproliferative activity against human SF539 cells at 10 uM assessed as cell growth inhibition relative to control
IGROV-1 = assay: Antiproliferative activity against human IGROV1 cells at 10 uM assessed as cell growth inhibition relative to control
SNB-75 = assay: Antiproliferative activity against human SNB75 cells at 10 uM assessed as cell growth inhibition relative to control
PC-3 = assay: Antiproliferative activity against human PC3 cells at 10 uM assessed as cell growth inhibition relative to control
ACHN = assay: Antiproliferative activity against human ACHN cells at 10 uM assessed as cell growth inhibition relative to control
SNB-19 = assay: Antiproliferative activity against human SNB19 cells at 10 uM assessed as cell growth inhibition relative to control
OVCAR-3 = assay: Antiproliferative activity against human OVCAR-3 cells at 10 uM assessed as cell growth inhibition relative to control
OVCAR-5 = assay: Antiproliferative activity against human OVCAR5 cells at 10 uM assessed as cell growth inhibition relative to control
NCI-H522 = assay: Antiproliferative activity against human NCI-H522 cells at 10 uM assessed as cell growth inhibition relative to control
786-0 = assay: Antiproliferative activity against human 786-0 cells at 10 uM assessed as cell growth inhibition relative to control
T47D = assay: Antiproliferative activity against human T47D cells at 10 uM assessed as cell growth inhibition relative to control
[1] = Antiproliferative activity against human Hs 578T cells at 10 uM assessed as cell growth inhibition relative to control
DU-145 = assay: Antiproliferative activity against human DU145 cells at 10 uM assessed as cell growth inhibition relative to control
Malme-3M = assay: Antiproliferative activity against human MALME-3M cells at 10 uM assessed as cell growth inhibition relative to control
MDA-MB-231 = assay: Antiproliferative activity against human MDA-MB-231 cells at 10 uM assessed as cell growth inhibition relative to control
LOX IMVI = assay: Antiproliferative activity against human LOXIMVI cells at 10 uM assessed as cell growth inhibition relative to control
SF-268 = assay: Antiproliferative activity against human SF268 cells at 10 uM assessed as cell growth inhibition relative to control
NCI-H460 = assay: Antiproliferative activity against human NCI-H460 cells at 10 uM assessed as cell growth inhibition relative to control
HCT-116 = assay: Antiproliferative activity against human HCT116 cells at 10 uM assessed as cell growth inhibition relative to control
[2] = Antiproliferative activity against human […] cells at 10 uM assessed as cell growth inhibition relative to control
HCT-15 = assay: Antiproliferative activity against human HCT15 cells at 10 uM assessed as cell growth inhibition relative to control
TK-10 = assay: Antiproliferative activity against human TK10 cells at 10 uM assessed as cell growth inhibition relative to control
SN12C = assay: Antiproliferative activity against human SN12C cells at 10 uM assessed as cell growth inhibition relative to control
HT-29 = assay: Antiproliferative activity against human HT-29 cells at 10 uM assessed as cell growth inhibition relative to control
NCI-H322M = assay: Antiproliferative activity against human NCI-H322M cells at 10 uM assessed as cell growth inhibition relative to control
MCF7 = assay: Antiproliferative activity against human MCF7 cells at 10 uM assessed as cell growth inhibition relative to control
UO-31 = assay: Antiproliferative activity against human UO31 cells at 10 uM assessed as cell growth inhibition relative to control
OVCAR-4 = assay: Antiproliferative activity against human OVCAR4 cells at 10 uM assessed as cell growth inhibition relative to control
OVCAR-8 = assay: Antiproliferative activity against human OVCAR8 cells at 10 uM assessed as cell growth inhibition relative to control
SF-295 = assay: Antiproliferative activity against human SF295 cells at 10 uM assessed as cell growth inhibition relative to control
RXF 393 = assay: Antiproliferative activity against human RXF393 cells at 10 uM assessed as cell growth inhibition relative to control
UACC-257 = assay: Antiproliferative activity against human UACC257 cells at 10 uM assessed as cell growth inhibition relative to control
SK-OV-3 = assay: Antiproliferative activity against human SKOV3 cells at 10 uM assessed as cell growth inhibition relative to control

CCOC(=O)C=C1[C@@H](O[Si](C)(C)C(C)(C)C)[C@H](n2cnc3c(N)ncnc32)O[C@@H]1CNC(=O)NC
growth, % of control at 10 µM (CCRF-CEM): 119% | growth, % of control at 10 µM (MDA-MB-468): 71% | growth, % of control at 10 µM (CAKI-1): 85% | growth, % of control at 10 µM (COLO 205): 76% | growth, % of control at 10 µM (HCC 2998): 71% | growth, % of control at 10 µM (HOP-62): 99% | growth, % of control at 10 µM (U-251): 53% | growth, % of control at 10 µM (SK-MEL-5): 75% | growth, % of control at 10 µM (M14): 87% | growth, % of control at 10 µM (MOLT-4): 75% | growth, % of control at 10 µM (NCI-H23): 99% | growth, % of control at 10 µM (UACC-62): 79% | growth, % of control at 10 µM (KM12): 60% | growth, % of control at 10 µM (NCI-H226): 90% | growth, % of control at 10 µM (SW-620): 88% | growth, % of control at 10 µM (A498): 78% | growth, % of control at 10 µM (A549): 100% | growth, % of control at 10 µM (BT-549): 80% | growth, % of control at 10 µM (HL-60(TB)): 76% | growth, % of control at 10 µM (SK-MEL-28): 111% | growth, % of control at 10 µM (HOP-92): 90% | growth, % of control at 10 µM (K562): 84% | growth, % of control at 10 µM (EKVX): 86% | growth, % of control at 10 µM (SK-MEL-2): 94% | growth, % of control at 10 µM (SF-539): 92% | growth, % of control at 10 µM (IGROV-1): 46% | growth, % of control at 10 µM (SNB-75): 98% | growth, % of control at 10 µM (PC-3): 93% | growth, % of control at 10 µM (ACHN): 70% | growth, % of control at 10 µM (SNB-19): 88% | growth, % of control at 10 µM (OVCAR-3): 65% | growth, % of control at 10 µM (OVCAR-5): 88% | growth, % of control at 10 µM (NCI-H522): 74% | growth, % of control at 10 µM (786-0): 77% | growth, % of control at 10 µM (T47D): 79% | growth, % of control at 10 µM [1]: 107% | growth, % of control at 10 µM (DU-145): 71% | growth, % of control at 10 µM (Malme-3M): 105% | growth, % of control at 10 µM (MDA-MB-231): 81% | growth, % of control at 10 µM (LOX IMVI): 74% | growth, % of control at 10 µM (SF-268): 98% | growth, % of control at 10 µM (NCI-H460): 110% | growth, % of control at 10 µM (HCT-116): 52% | growth, % of control at 10 µM [2]: 81% | growth, % of control at 10 µM (HCT-15): 90% | growth, % of control at 10 µM (TK-10): 85% | growth, % of control at 10 µM (SN12C): 90% | growth, % of control at 10 µM (HT-29): 65% | growth, % of control at 10 µM (NCI-H322M): 81% | growth, % of control at 10 µM (MCF7): 94% | growth, % of control at 10 µM (UO-31): 76% | growth, % of control at 10 µM (OVCAR-4): 71% | growth, % of control at 10 µM (OVCAR-8): 104% | growth, % of control at 10 µM (SF-295): 88% | growth, % of control at 10 µM (RXF 393): 105% | growth, % of control at 10 µM (UACC-257): 95% | growth, % of control at 10 µM (SK-OV-3): 102%
